Measurements published in patent publication US12636271B2, “Combination comprising N-acetyl-L-cysteine and its use” (IASOMAI AB, priority 2011, dated 2026).

Experiments:
[1] = tested on: HL60 cells; assay: Antioxidant effect against menadione oxidative stimulus, CM-H2DCFDA fluorescence; type: cell-based, human; conditions: concentrations as in FIGS. 5-7
[2] = tested on: K562 cells; assay: as above; type: cell-based, human; conditions: 0.2 mM menadione, 0.4 mM NAC, 0.2 mM SeMet, 2 mM Mel (FIG. 4)
Method: The human lymphoblastoid HL60 and the proerythoblastoid K562 cell lines were used, grown at 37° C. in RPMI 1640 medium (Invitrogen, Gibco, Milano, Italy), supplemented with 10% fetal bovine serum, 5 μg/ml penicillin, 5 μg/ml streptomycin, 2 mM glutamine, and routinely subcultured three times a week. Cells were treated either with menadione alone (control), with NAC only, with NAC+Se-methionine (SeMet), with NAC+Mel, or with NAC+SeMet+Mel. In cases of SeMet supplementation, such supplementation was performed two days before experiments, by using a SeMet solution in buffer (concentrations as indicated in description of FIGS. 4-7). […]
The effect of NAC, Mel, SeMet and of a combination of these substances in protecting the cells against an oxidative stimulus was detected by using the fluorescent probe 5-(and-6)-chloromethyl-2′,7′-dichlorodihydrofluorescein diacetate, acetyl ester (CM-H2DCFDA) (Invitrogen, Molecular Probes). […] The increase in hydroperoxides (mainly H2O2) within the cell is thus monitored by increase in fluorescence. […]
Cells were counted, and care was taken to keep the ratio between cells and the fluorescent probe constant. […] Two μ1 of a solution of CM-H2DCFDA in DMSO were then added and the fluorescence intensity read versus time. […] During intensity readings, samples were subjected to continuous mild stirring. […]

[3] = tested on: patients suffering from sporadic insomnia; assay: Sporadic insomnia trial, rated intensity before and after treatment; type: in vivo, human; conditions: group of 24 patients
[4] = tested on: patients suffering from fatigue; assay: Fatigue trial, rated intensity before and after treatment; type: in vivo, human; conditions: group of 20 patients
Excerpt: In a method, conducted in a similar manner to that described in the previous Examples 6 and 7, and in accordance with embodiments of this disclosure a medical product comprising NAC, SeMet and Mel in accordance with embodiments was given to a plurality of groups of patients in the treatment of fatigue. The method of treating fatigue comprises administering to a patient in need thereof, a medical product consisting of one or more excipients and active agents consisting of (i) N-acetyl-L-cysteine; (ii) selenium in the form of selenomethionine; and (iii) melatonin and/or physiologically acceptable salts thereof. Fatigue may be related and due to anxiety, and/or to sporadic insomnia or have other independent causes. Fatigue is defined as a state of tiredness that remain despite rest or sleep, and that tend to impair cognitive and/or physical ability and performance.
In a trial the NAC, SeMet and Mel medical product, herein also called NAC-factor 3, was administered to a group of patients in a set-up to compare the effect of placebo, NAC and the medical product consisting of NAC, SeMet and Mel in treatment of fatigue.
(§1) The patients rated their experienced intensity of fatigue before and after being exposed to medication with one of placebo, NAC and the medical product consisting of NAC, SeMet and Mel (in short NACSeMel), respectively. The subjective intensity was rated by the patients using a 5 graded verbal rating scale ranging from None/Ignorable=0, Slight=1, Moderate=2, Great=3, Excruciating=4, where the corresponding numbers 0-4 are used to illustrate the responses in accompanying graphs.
(§2) In studying the results of the rating, the change in rating that the group delivered was expressed as a measure of the group's relative position RP in order to assess whether there was a systematic change in position on the rating scale. The relative position, i.e. the change in rating is negative if the rating indicates less intensity after exposure to treatment compared to before treatment, and positive if the rating indicates higher intensity after exposure to treatment. A range of values for the relative position RP was calculated for a 95% confidence interval CI.

[5] = tested on: patients suffering from varying kinds of anxiety; assay: Anxiety trial, rated pain intensity before and after treatment; type: in vivo, human; conditions: n = 20
Excerpt: In a method in accordance with embodiments of this disclosure a medical product comprising NAC, SeMet and Mel in accordance with embodiments was given to a plurality of groups of patients in the treatment of anxiety. The method of treating an anxiety disorder comprises administering to a patient in need thereof, a medical product consisting of one or more excipients and active agents consisting of (i) N-acetyl-L-cysteine; (ii) selenium in the form of selenomethionine; and (iii) melatonin and/or physiologically acceptable salts thereof.
(§3) In a trial the NAC, SeMet and Mel medical product, herein also called NAC-factor 3, was administered to the groups of patients in a set-up to compare the anxiolytic effect of placebo, NAC and the medical product consisting of NAC, SeMet and Mel in anxiolysis. The groups of patients were ordered according to the following different causes of anxiety: Sporadic anxiety (i.e. healthy patients) (SA), Social phobia (SP), Agoraphobia (AP), Panic disorder (PD), Generalized anxiety disorder (GAD), Obsessive-compulsive disorders (OCD), and Posttraumatic stress disorder (PTSD).
as §1, with “of pain from the anxiety” for “of fatigue”, “subjective pain-intensity” for “subjective intensity”
as §2, with “less pain” for “less”, “higher pain” for “higher”

[6] = tested on: patients suffering from panic disorder; assay: as above; type: in vivo, human; conditions: n = 7
Method: as §3
as §1, with “of pain from the anxiety” for “of fatigue”, “subjective pain-intensity” for “subjective intensity”
as §2, with “less pain” for “less”, “higher pain” for “higher”
(§4) The corresponding treatment design as described above was used with patients rating the pain intensity for specific causes of anxiety, viz. Recurrent sporadic social anxiety, Social Phobia/Agoraphobia, Panic disorder, Generalized anxiety disorder, Obsessive compulsive disorder and Posttraumatic stress disorder. The results are presented in the following Table 3 and in FIG. 11-FIG. 16.

[7] = tested on: patients suffering from social phobia/agoraphobia; assay: as above; type: in vivo, human; conditions: n = 6
Method: as §3
as §1, with “of pain from the anxiety” for “of fatigue”, “subjective pain-intensity” for “subjective intensity”
as §2, with “less pain” for “less”, “higher pain” for “higher”
as §4

[8] = tested on: patients suffering from obsessive compulsive disorder; assay: as above; type: in vivo, human; conditions: n = 7
Method: as §3
as §1, with “of pain from the anxiety” for “of fatigue”, “subjective pain-intensity” for “subjective intensity”
as §2, with “less pain” for “less”, “higher pain” for “higher”
as §4

[9] = tested on: patients suffering from recurrent sporadic social anxiety; assay: as above; type: in vivo, human; conditions: n = 12
Method: as §3
as §1, with “of pain from the anxiety” for “of fatigue”, “subjective pain-intensity” for “subjective intensity”
as §2, with “less pain” for “less”, “higher pain” for “higher”
as §4

[10] = tested on: patients suffering from posttraumatic stress disorder; assay: as above; type: in vivo, human; conditions: n = 5
Method: as §3
as §1, with “of pain from the anxiety” for “of fatigue”, “subjective pain-intensity” for “subjective intensity”
as §2, with “less pain” for “less”, “higher pain” for “higher”
as §4

[11] = tested on: patients suffering from generalized anxiety disorder; assay: as above; type: in vivo, human; conditions: n = 8
Method: as §3
as §1, with “of pain from the anxiety” for “of fatigue”, “subjective pain-intensity” for “subjective intensity”
as §2, with “less pain” for “less”, “higher pain” for “higher”
as §4

[12] = negative = less intensity after treatment

In the case of `COc1ccc2[nH]cc(CCNC(C)=O)c2c1` [Mel, melatonin], the “oxidative response (slope of DCFDA fluorescence intensity increase) after menadione” value [1] is reported as “unfavorable pro-oxidant effect”.
With `CC(=O)N[C@@H](CS)C(=O)O` [NAC, N-acetyl-L-cysteine] the “oxidative response (slope of DCFDA fluorescence intensity increase) after menadione” value [2] was “relevant reduction in the kinetics of this intensity increase”, the “number of patients that rated lower sporadic insomnia” value [3] was 15 patients and the “number of patients that rated unchanged intensity” value [3] was 9 patients. The “patients that rated lower sporadic insomnia” value [3] was 62%, the “patients that rated unchanged intensity” value [3] was 38% and the “relative position RP” value [3, 12] was −0.37 (95% CI −0.49 to −0.25). The “oxidative response (slope of DCFDA fluorescence intensity increase) after menadione” value [1] was “relevant reduction in the kinetics of this intensity increase”, the “number of patients that rated increased level of fatigue” value [4] was 3 patients and the “number of patients that rated lower fatigue” value [4] was 9 patients. The “number of patients that rated unchanged intensity of fatigue” value [4] was 8 patients, the “patients that rated increased level of fatigue” value [4] was 15% and the “patients that rated lower fatigue” value [4] was 45%. The “patients that rated unchanged intensity of fatigue” value [4] was 40%, the “relative position RP” value [4, 12] was −0.26 (95% CI −0.49 to −0.03) and the “number of patients that rated higher pain intensity after treatment” value [5] was 5 patients. For the same compound, the “number of patients that rated lower pain intensity after treatment” value [5] was 9 patients, the “patients that rated higher pain intensity after treatment” value [5] was 25% and the “patients that rated lower pain intensity after treatment” value [5] was 40%. The “patients that rated unchanged level” value [5] was 35%, the “number of patients that rated lower” value [6] was 3 patients and the “number of patients that rated unchanged level” value [6] was 4 patients. For the same compound, the “relative position RP” value [6] was “RP −0.35”, the “number of patients that rated lower” value [7] was “↓3, ~3 patients” and the “number of patients that rated unchanged level” value [7] was “↓3, ~3 patients”. The “relative position RP” value [7] was “RP −0.31”, the “number of patients that rated higher” value [8] was 1 patients and the “number of patients that rated lower” value [8] was 4 patients. The “number of patients that rated unchanged level” value [8] was 2 patients, the “relative position RP” value [8] was “RP −0.27” and the “number of patients that rated lower” value [9] was 9 patients. For the same compound, the “number of patients that rated unchanged level” value [9] was 2 patients, the “relative position RP” value [9] was “RP −0.46” and the “number of patients that rated lower” value [10] was 3 patients. The “number of patients that rated unchanged level” value [10] was 2 patients, the “relative position RP” value [10] was “RP −0.60” and the “number of patients that rated lower” value [11] was 7 patients. For the same compound, the “number of patients that rated unchanged level” value [11] was 1 patients and the “relative position RP” value [11] was “RP −0.81”.
With `C[Se]CC[C@H](N)C(=O)O` [SeMet, selenomethionine] the “oxidative response (slope of DCFDA fluorescence intensity increase) after menadione” value [1] was “unfavorable pro-oxidant effect”.
